This is an account of results in US12721844B2, “Chronic kidney disease treatment or prevention method” (Japan Tobacco Inc., priority 2019, dated 2026).

Common to all, as to format: cell-based
For one data set, the target named is T1, human SGLT1 (Homo sapiens, UniProt P13866).
T1 sequence (P13866 1-664): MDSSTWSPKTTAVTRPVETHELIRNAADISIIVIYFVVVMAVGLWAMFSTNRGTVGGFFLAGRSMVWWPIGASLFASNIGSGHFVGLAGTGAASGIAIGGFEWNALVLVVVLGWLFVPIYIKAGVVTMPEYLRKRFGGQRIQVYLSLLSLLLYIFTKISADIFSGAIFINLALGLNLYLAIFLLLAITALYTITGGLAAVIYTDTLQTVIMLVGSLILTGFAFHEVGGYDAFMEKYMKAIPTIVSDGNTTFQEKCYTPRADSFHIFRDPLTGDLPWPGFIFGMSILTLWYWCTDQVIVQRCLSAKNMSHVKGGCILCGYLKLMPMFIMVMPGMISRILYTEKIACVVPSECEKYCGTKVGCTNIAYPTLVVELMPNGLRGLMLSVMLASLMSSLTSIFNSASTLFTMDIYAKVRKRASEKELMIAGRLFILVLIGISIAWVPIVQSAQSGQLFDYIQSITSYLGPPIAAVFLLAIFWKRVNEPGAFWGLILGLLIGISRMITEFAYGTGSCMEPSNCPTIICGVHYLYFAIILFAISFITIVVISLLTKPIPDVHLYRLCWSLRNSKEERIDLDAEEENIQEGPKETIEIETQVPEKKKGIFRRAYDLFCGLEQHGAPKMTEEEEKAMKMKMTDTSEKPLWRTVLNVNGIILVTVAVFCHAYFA
As to the kind of experiment: Assessment of SGLT1 inhibitory activity (14C-AMG uptake in human SGLT1-stably-expressing CHO-K1 cell line). The following applies: CHO-K1; at 0.3 μM; read-out: hSGLT1 inhibition. The protocol: Assessment of SGLT1 Inhibitory Activity
SGLT1 inhibitory activities of test compounds (IC50 values) were calculated based on the amount of intracellular uptake of labelled […] (^14C-AMG) transported by SGLT1.
1) Formation of Human SGLT1-Expressing Plasmid
A DNA fragment containing human SGLT1 was amplified by PCR (Polymerase Chain Reaction) using pCMV6-hSGLT1 (OriGene) as a template. In the human SGLT1, NheI recognition and cleavage sequence was added to the upstream of Kozac consensus sequence derived from a vector, and a stop codon, TAG, and SalI recognition and cleavage sequence were added to the immediate downstream of the protein-translating region of human SGLT1. […]
Human SGLT1-stably-expressing cell lines were seeded at 5×10^4 cells/well on BioCoat™ Poly-D-Lysine 96 well plate with Lid (Becton, Dickinson and Company) and cultured at 37° C. under 5% CO2 overnight. […] In the assessment for the uptake ability of ^14C-AMG, the total amount of the cell lysate was transferred to OptiPlate 96 (Perkin-E1mer) with 100 μL/well of MicroScint-40 (Perkin-E1mer) dispensed and ^14C of CPM was measured with TOPCOUNT NXT (Perkin-E1mer).
Data was calculated by deducting the average value of CPM for blank well from the average value of CPM for each well treated. […]

For data set [1], the system named is Salmonella typhimurium (TA98, TA1537, TA100, and TA1535) and Escherichia coli (WP2 uvrA). As to the kind of experiment: Ames test (reverse mutation test), all bacterial tester strains. As to conditions: any of the bacterial tester strains, with and/or without S9 mix. The source says: (§1) Ames Test (Reverse Mutation Test)
(§2) Two plates per treatment were used.
In general terms: The Ames test detects mutagens through reverse mutation in bacteria.

Data set [2] concerns Salmonella typhimurium TA1535. As to the kind of experiment: Ames test (reverse mutation test), TA1535.
Source text: as §1, §2

The test system of data set [3] is Salmonella typhimurium TA98. As to the kind of experiment: Ames test (reverse mutation test), TA98. The following applies: with S9 mix.
Source text: as §1, §2

Data set [4] has as its system Salmonella typhimurium TA1537. As to the kind of experiment: Ames test (reverse mutation test), TA1537. The following applies: with S9 mix.
Source text: as §1, §2

For data set [5], the system named is Salmonella typhimurium TA100. As to the kind of experiment: Ames test (reverse mutation test), TA100. The following applies: with S9 mix.
Source text: as §1, §2

Data set [6] relates to Escherichia coli WP2 uvrA. As to the kind of experiment: Ames test (reverse mutation test), WP2 uvrA. As to conditions: without S9 mix.
Source text: as §1, §2

The mark [7] stands for this setting: with S9 mix, dose 1667 μg/plate.
Where [8] appears, read: with S9 mix, dose 5000 μg/plate.
Setting [9] is: without S9 mix, dose 6.9 μg/plate.
Setting [10] is: without S9 mix, dose 21 μg/plate.
[11] abbreviates: without S9 mix, dose 62 μg/plate.
[12] abbreviates: without S9 mix, dose 185 μg/plate.
The mark [13] stands for this setting: without S9 mix, dose 556 μg/plate.
Where [14] appears, read: without S9 mix, dose 1667 μg/plate.
Setting [15] is: without S9 mix, dose 5000 μg/plate.

On to `C[C@H]1C(=O)NC[C@@H]1C(=O)Nc1cc(-c2cccc(OC(F)(F)F)c2)n(-c2ccc(Cl)nn2)n1` [Example 10], for which the inhibition at 0.3 µM at human SGLT1 stood at 45%.
For the compound `CC(C)(C)Oc1cc(F)cc(-c2cc(N)nn2C(F)(F)F)c1` [Metabolite 1], the “potential to induce reverse mutations” value in data set [1] is on record as “did not show potential to induce reverse mutations”. The “Number of revertant colonies TA1535” value in data set [2] (with S9 mix, dose 2.3 μg/plate) is on record as 13; in data set [2] (with S9 mix, dose 6.9 μg/plate), 7; in data set [2] (with S9 mix, dose 21 μg/plate), 6; in data set [2] (with S9 mix, dose 62 μg/plate) it was 8; in data set [2] (with S9 mix, dose 185 μg/plate) it was 5; in data set [2] (with S9 mix, dose 556 μg/plate), 4. Moreover, the “Number of revertant colonies TA1535” value in data set [2] (setting [7]) is recorded as 4; in data set [2] (setting [8]), 2; in data set [2] (without S9 mix, dose 2.3 μg/plate) it was 6; in data set [2] (setting [9]), 9; in data set [2] (setting [10]), 8; in data set [2] (setting [11]), 8. In addition, the “Number of revertant colonies TA1535” value in data set [2] (setting [12]), in data set [2] (setting [13]), in data set [2] (setting [14]) and in data set [2] (setting [15]) was 0 each time.
As to `Nc1cc(-c2cc(F)cc(OC(F)(F)F)c2)n(-c2cncc(F)c2)n1` [Metabolite 3], the “potential to induce reverse mutations” value in data set [1] is given as “did not show potential to induce reverse mutations”. Also, the “Number of revertant colonies TA1535” value in data set [2] (with S9 mix, dose 6.9 μg/plate) is 8; in data set [2] (with S9 mix, dose 21 μg/plate), 9; in data set [2] (with S9 mix, dose 62 μg/plate), 11; in data set [2] (with S9 mix, dose 185 μg/plate) it was 9; in data set [2] (with S9 mix, dose 556 μg/plate), 4; in data set [2] (setting [7]), 3. Further, the “Number of revertant colonies TA1535” value turned out to be 1 in data set [2] (setting [8]); 9 in data set [2] (setting [9]); 11 in data set [2] (setting [10]); 10 in data set [2] (setting [11]); 8 in data set [2] (setting [12]); 8 in data set [2] (setting [13]). The “Number of revertant colonies TA1535” value in data set [2] (setting [14]) and in data set [2] (setting [15]) was 0 throughout.
Consider `Nc1cc(-c2cc(F)cc(OC(F)(F)F)c2)n(-c2cncc(C(F)(F)F)c2)n1` [Metabolite 5], for which the “potential to induce reverse mutations” value in data set [1] is on record as “did not show potential to induce reverse mutations”. For the same compound, the “Number of revertant colonies TA1535” value was found to be 10 in data set [2] (with S9 mix, dose 6.9 μg/plate); 11 in data set [2] (with S9 mix, dose 21 μg/plate); 10 in data set [2] (with S9 mix, dose 62 μg/plate); 9 in data set [2] (with S9 mix, dose 185 μg/plate); 7 in data set [2] (with S9 mix, dose 556 μg/plate); 4 in data set [2] (setting [7]). Moreover, the “Number of revertant colonies TA1535” value in data set [2] (setting [8]) was 2; in data set [2] (setting [9]) it was 9; in data set [2] (setting [10]) it was 11; in data set [2] (setting [11]), 4; in data set [2] (setting [12]), 7; in data set [2] (setting [13]), 6. Also, the “Number of revertant colonies TA1535” value in data set [2] (setting [14]) worked out at 3; in data set [2] (setting [15]), 4.
With `Cc1ccc(-n2nc(N)cc2-c2cccc(OCC(F)(F)F)c2)cc1` [Metabolite F], the “potential to induce reverse mutations, TA98” value in data set [3] was “showed potential to induce reverse mutations”. In addition, the “potential to induce reverse mutations, TA1537” value in data set [4] is given as “showed potential to induce reverse mutations”. Also, in data set [5], the “potential to induce reverse mutations, TA100” value is reported as “showed potential to induce reverse mutations”. The “Number of revertant colonies TA1535” value in data set [2] (S9 Mix +, 2.3 μg/plate) was determined as 22; in data set [2] (S9 Mix +, 6.9 μg/plate), 21; in data set [2] (S9 Mix +, 21 μg/plate), 20; in data set [2] (S9 Mix +, 62 μg/plate) it was 23; in data set [2] (S9 Mix +, 185 μg/plate), 13; in data set [2] (S9 Mix +, 556 μg/plate), 7. Also, the “Number of revertant colonies TA1535” value in data set [2] (S9 Mix +, 1667 μg/plate) turned out to be 0; in data set [2] (S9 Mix +, 5000 μg/plate), 0; in data set [2] (S9 Mix −, 2.3 μg/plate) it was 17; in data set [2] (S9 Mix −, 6.9 μg/plate) it was 13; in data set [2] (S9 Mix −, 21 μg/plate), 19; in data set [2] (S9 Mix −, 62 μg/plate) it was 11. For the same compound, the “Number of revertant colonies TA1535” value was found to be 3 in data set [2] (S9 Mix −, 185 μg/plate); 0 in data set [2] (S9 Mix −, 556 μg/plate); 0 in data set [2] (S9 Mix −, 1667 μg/plate); 0 in data set [2] (S9 Mix −, 5000 μg/plate). Besides, the “potential to induce reverse mutations, WP2 uvrA” value in data set [6] is “showed potential to induce reverse mutations”.

A word on the inhibition: it is how much of the control response was suppressed.
